Test results as given in ChEMBL document CHEMBL1149085, “Potential utility of histamine H3 receptor antagonist pharmacophore in antipsychotics” (Bioorg Med Chem Lett, 2009).

Experiments:
Histamine H3 receptor = Histamine H3 receptor (Homo sapiens, UniProt Q9Y5N1); test: biochemical; type: cell-based, HEK293
Description: Displacement of [125I]iodoproxyfan from human histamine H3 receptor expressed in CHO/HEK293 cells

D(2) dopamine receptor = D(2) dopamine receptor (Homo sapiens, UniProt P14416); test: biochemical; type: cell-based, CHO
Description: Displacement of [3H]spiperone from human dopamine D2 receptor expressed in CHO cells

D(1A) dopamine receptor = D(1A) dopamine receptor (Homo sapiens, UniProt P21728); test: biochemical
Description: Displacement of [3H]SCH23390 from human dopamine D1 receptor expressed in HEK cells

D(3) dopamine receptor = D(3) dopamine receptor (Homo sapiens, UniProt P35462); test: biochemical
Description: Displacement of [3H]spiperone from human dopamine D3 receptor expressed in CHO cells

D(1B) dopamine receptor = D(1B) dopamine receptor (Homo sapiens, UniProt P21918); test: biochemical
Description: Displacement of [3H]SCH23390 from human dopamine D5 receptor expressed in HEK cells

Mus musculus = organism: Mus musculus; test: animal or person; type: functional; settings: Swiss, Cerebral cortex, po, 1.5 h
Description: Antagonist activity at histamine H3 receptor in po dosed Swiss mouse cerebral cortex assessed as Ntau-methylhistamine level after 90 mins by radioimmunoassay

Sequence of D(3) dopamine receptor (P35462 whole entry): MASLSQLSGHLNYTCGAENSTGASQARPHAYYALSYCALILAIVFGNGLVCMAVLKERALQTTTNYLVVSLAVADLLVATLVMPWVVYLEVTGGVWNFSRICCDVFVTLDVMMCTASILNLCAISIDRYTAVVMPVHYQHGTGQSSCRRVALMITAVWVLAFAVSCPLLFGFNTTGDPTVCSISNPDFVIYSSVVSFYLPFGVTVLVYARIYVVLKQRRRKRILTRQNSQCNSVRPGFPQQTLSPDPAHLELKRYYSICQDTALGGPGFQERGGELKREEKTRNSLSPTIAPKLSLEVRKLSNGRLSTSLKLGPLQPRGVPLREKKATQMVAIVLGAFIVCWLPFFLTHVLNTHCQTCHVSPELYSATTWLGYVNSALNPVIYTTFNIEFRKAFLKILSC
Sequence of D(1B) dopamine receptor (P21918 whole entry): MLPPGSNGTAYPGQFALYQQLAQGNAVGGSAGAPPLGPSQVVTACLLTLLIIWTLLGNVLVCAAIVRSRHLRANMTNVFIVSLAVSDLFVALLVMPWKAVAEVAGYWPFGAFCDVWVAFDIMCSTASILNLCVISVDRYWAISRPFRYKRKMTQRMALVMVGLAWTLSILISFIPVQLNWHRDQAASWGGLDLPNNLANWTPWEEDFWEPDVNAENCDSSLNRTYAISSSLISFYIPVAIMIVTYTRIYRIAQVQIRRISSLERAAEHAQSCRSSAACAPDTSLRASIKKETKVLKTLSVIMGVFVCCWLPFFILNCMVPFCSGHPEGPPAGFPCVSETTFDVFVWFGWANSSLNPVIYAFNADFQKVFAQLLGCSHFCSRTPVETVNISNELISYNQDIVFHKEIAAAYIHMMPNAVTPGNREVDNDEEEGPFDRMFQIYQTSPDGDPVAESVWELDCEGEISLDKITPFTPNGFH
Sequence of D(2) dopamine receptor (P14416 whole entry): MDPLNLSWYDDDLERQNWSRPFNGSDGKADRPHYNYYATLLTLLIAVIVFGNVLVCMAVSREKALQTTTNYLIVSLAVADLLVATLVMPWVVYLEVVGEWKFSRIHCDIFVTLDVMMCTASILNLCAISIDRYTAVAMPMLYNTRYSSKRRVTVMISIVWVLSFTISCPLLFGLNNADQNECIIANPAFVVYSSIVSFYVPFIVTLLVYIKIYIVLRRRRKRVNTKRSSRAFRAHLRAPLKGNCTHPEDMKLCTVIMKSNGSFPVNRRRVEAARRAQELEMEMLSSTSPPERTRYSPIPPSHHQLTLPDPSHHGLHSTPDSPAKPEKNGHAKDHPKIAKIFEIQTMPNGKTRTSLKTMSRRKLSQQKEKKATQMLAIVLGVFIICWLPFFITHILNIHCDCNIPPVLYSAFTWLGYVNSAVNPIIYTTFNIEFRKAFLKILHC
Sequence of Histamine H3 receptor (Q9Y5N1 whole entry): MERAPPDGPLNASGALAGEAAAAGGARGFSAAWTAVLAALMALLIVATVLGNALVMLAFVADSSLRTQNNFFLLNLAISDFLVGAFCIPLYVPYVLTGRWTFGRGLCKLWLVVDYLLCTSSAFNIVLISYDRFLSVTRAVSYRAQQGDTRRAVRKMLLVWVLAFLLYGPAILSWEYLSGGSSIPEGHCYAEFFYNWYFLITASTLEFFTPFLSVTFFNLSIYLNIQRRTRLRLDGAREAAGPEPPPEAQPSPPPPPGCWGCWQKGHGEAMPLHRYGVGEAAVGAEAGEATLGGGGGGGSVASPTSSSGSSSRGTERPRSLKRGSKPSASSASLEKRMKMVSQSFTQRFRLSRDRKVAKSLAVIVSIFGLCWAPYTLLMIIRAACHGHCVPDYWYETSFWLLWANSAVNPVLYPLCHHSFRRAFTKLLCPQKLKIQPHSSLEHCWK
Sequence of D(1A) dopamine receptor (P21728 whole entry): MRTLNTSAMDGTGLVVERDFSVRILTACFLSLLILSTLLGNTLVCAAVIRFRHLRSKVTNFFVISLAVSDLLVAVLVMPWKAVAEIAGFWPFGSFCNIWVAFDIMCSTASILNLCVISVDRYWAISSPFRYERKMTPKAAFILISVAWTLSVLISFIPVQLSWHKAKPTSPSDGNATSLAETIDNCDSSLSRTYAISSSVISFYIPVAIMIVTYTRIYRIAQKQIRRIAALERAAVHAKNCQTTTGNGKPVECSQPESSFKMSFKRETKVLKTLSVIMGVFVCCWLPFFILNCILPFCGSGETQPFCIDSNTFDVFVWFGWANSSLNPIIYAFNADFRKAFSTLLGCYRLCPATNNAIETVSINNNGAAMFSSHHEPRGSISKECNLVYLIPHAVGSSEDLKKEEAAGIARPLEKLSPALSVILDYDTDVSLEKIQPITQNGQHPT

With `CN(CC/C=C1\c2ccccc2Sc2ccc(Cl)cc21)Cc1ccc(OCCCN2CCCCC2)cc1` the Ki (Histamine H3 receptor) was 1.54 nM, the Ki (D(2) dopamine receptor) was 52 nM and the Ki (D(1A) dopamine receptor) was 248 nM. For the same molecule, the Ki (D(3) dopamine receptor) was 50 nM.
Work on `O=C(OCCN1CCN(CCCN2c3ccccc3Sc3ccc(C(F)(F)F)cc32)CC1)c1ccc(OCCCN2CCCCC2)cc1` yielded a Ki (Histamine H3 receptor) of 0.042 nM, a Ki (D(2) dopamine receptor) of 47 nM and a Ki (D(1A) dopamine receptor) of 203 nM. It also gave a Ki (D(1B) dopamine receptor) of 265 nM and a Ki (D(3) dopamine receptor) of 15 nM.
`CN(CCCN1c2ccccc2Sc2ccc(Cl)cc21)Cc1ccc(OCCCN2CCCCC2)cc1` gave a Ki (Histamine H3 receptor) of 1.21 nM, a Ki (D(2) dopamine receptor) of 41 nM and a Ki (D(1A) dopamine receptor) of 232 nM. For the same molecule, the Ki (D(1B) dopamine receptor) was 153 nM and the Ki (D(3) dopamine receptor) was 50 nM.
`CN(CCC=C1c2ccccc2CCc2ccccc21)C(=O)Cc1ccc(OCCCN2CCCCC2)cc1` gave a Ki (Histamine H3 receptor) of 4.9 nM, a Ki (D(2) dopamine receptor) of 904 nM and a Ki (D(1A) dopamine receptor) of 879 nM. For the same molecule, the Ki (D(1B) dopamine receptor) was greater than 1000 nM and the Ki (D(3) dopamine receptor) was 326 nM.
`CN(CCC=C1c2ccccc2CCc2ccccc21)C(=O)c1ccc(OCCCN2CCCCC2)cc1` showed a Ki (Histamine H3 receptor) of 3.5 nM, a Ki (D(2) dopamine receptor) greater than 1000 nM and a Ki (D(1A) dopamine receptor) greater than 1000 nM. For the same molecule, the Ki (D(1B) dopamine receptor) was greater than 1000 nM and the Ki (D(3) dopamine receptor) was 243 nM.
Work on `CN(C)CCC=C1c2ccccc2CCc2ccccc21` [AMITRIPTYLINE] yielded a Ki (Histamine H3 receptor) greater than 1000 nM, a Ki (D(2) dopamine receptor) of 196 nM and a Ki (D(1A) dopamine receptor) of […]. The Ki (D(1B) dopamine receptor) was 170 nM and the Ki (D(3) dopamine receptor) was 206 nM.
Work on `CN(C)CC/C=C1/c2ccccc2Sc2ccc(Cl)cc21` [CHLORPROTHIXENE] yielded a Ki (D(2) dopamine receptor) of 2.96 nM, a Ki (D(1B) dopamine receptor) of 9 nM and a Ki (D(3) dopamine receptor) of 4.56 nM.
Molecule `Clc1ccc2c(c1)N=C(N1CCN(Cc3ccc(OCCCN4CCCCC4)cc3)CC1)c1ccccc1N2` has a Ki (Histamine H3 receptor) of 3.27 nM, a Ki (D(2) dopamine receptor) of 285 nM and a Ki (D(1A) dopamine receptor) of 866 nM. For the same molecule, the Ki (D(1B) dopamine receptor) was 921 nM and the Ki (D(3) dopamine receptor) was 223 nM.
With `CN(CCC=C1c2ccccc2CCc2ccccc21)Cc1ccc(OCCCN2CCCCC2)cc1` the Ki (Histamine H3 receptor) was 0.25 nM, the Ki (D(2) dopamine receptor) was 101 nM and the ED50 (Mus musculus) was greater than 10 mg/kg. The Ki (D(1A) dopamine receptor) was 305 nM, the Ki (D(1B) dopamine receptor) was 273 nM and the Ki (D(3) dopamine receptor) was 67 nM.
Work on `CN(CCCC12CCC(c3ccccc31)c1ccccc12)Cc1ccc(OCCCN2CCCCC2)cc1` yielded a Ki (Histamine H3 receptor) of 0.358 nM, a Ki (D(2) dopamine receptor) of 146 nM and a Ki (D(1A) dopamine receptor) of 203 nM. For the same molecule, the Ki (D(1B) dopamine receptor) was 265 nM and the Ki (D(3) dopamine receptor) was 149 nM.
